Source: patent US20120214822A1 (ASTRAZENECA AB, priority 2007, published 2012)
Where a name gives a salt, the structure may show the parent alone.

Target: human active recombinant p38α-6His tagged (Homo sapiens, UniProt Q16539)
Test: P38 Alpha Enzyme Assay (AlphaScreen, biotinylated-ATF2 substrate);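 note: 0.5 nM final p38α, reaction started with ATP and run 45 min at 37 °C, phospho-ATF2 read by antibody-based AlphaScreen, background wells quenched with EDTA before ATP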
Assay type: biochemical
Conditions: p38 alpha enzyme inhibition; means of replicate determinations; 4 h pre-incubation at 37° C.; SD of assay 0.2-0.3 log units

Chain of human active recombinant p38α-6His tagged (Q16539 whole entry): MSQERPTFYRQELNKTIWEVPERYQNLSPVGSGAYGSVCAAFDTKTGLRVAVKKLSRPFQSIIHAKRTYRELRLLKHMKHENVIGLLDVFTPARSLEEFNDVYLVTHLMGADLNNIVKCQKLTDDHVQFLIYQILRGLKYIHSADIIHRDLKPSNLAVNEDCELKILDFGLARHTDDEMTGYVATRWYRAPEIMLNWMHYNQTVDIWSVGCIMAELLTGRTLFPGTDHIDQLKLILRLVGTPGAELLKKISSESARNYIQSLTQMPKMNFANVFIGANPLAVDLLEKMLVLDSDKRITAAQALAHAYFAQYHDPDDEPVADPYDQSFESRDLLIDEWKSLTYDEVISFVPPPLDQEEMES

Row | SMILES | pIC50
1 | Cc1ccc(C(=O)NC2CC2)cc1-n1ccnc(NCc2cccc(CN3CCN(C)CC3)c2)c1=O [Example 40, N-Cyclopropyl-4-methyl-3-[3-[[[3-[(4-methyl-1-piperazinyl)methyl]phenyl]methyl]amino]-2-oxo-1(2H)-pyrazinyl]-benzamide] | 6.7
2 | CONC(=O)c1ccc(C)c(-n2ccnc(N[C@@H](c3cccc4ccccc34)[C@@H](C)CN3CCOCC3)c2=O)c1 [Example 161, N-Methoxy-4-methyl-3-[3-[[(1R,2S)-2-methyl-3-(4-morpholinyl)-1-(1-naphthalenyl)propyl]amino]-2-oxo-1(2H)-pyrazinyl]-benzamide] | 9.2
3 | Cc1ccc(C(=O)NC2CC2)cc1-n1ccnc(NCCc2ccccn2)c1=O [Example 9, N-Cyclopropyl-4-methyl-3-[2-oxo-3-[[2-(2-pyridinyl)ethyl]amino]-1(2H)-pyrazinyl]-benzamide] | 6.3
4 | Cc1c(F)cc(C(=O)NC2CC2)cc1-n1ccnc(NC2(c3cc(F)ccc3OCCNCCO)CC2)c1=O [Example 282, N-Cyclopropyl-3-fluoro-5-[3-{[1-(5-fluoro-2-{2-[(2-hydroxyethyl)amino]ethoxy}phenyl)cyclopropyl]amino}-2-oxopyrazin-1(2H)-yl]-4-methylbenzamide] | 10.3
5 | Cc1ccc(C(=O)NC2CC2)cc1-n1ccnc(NC2(c3ccccc3OCCN3CCCN(C)CC3)CC2)c1=O [Example 235, N-Cyclopropyl-3-[3-[[1-[2-[2-(hexahydro-4-methyl-1H-1,4-diazepin-1-yl)ethoxy]phenyl]cyclopropyl]amino]-2-oxo-1(2H)-pyrazinyl]-4-methyl-benzamide] | 9.7
6 | Cc1c(F)cc(C(=O)NC2CC2)cc1-n1ccnc(NC(C)(C)c2ccccc2SCCN)c1=O [Example 321, 3-{3-[(1-{2-[(2-Aminoethyl)sulfanyl]phenyl}-1-methylethyl)amino]-2-oxopyrazin-1(2H)-yl}-N-cyclopropyl-5-fluoro-4-methylbenzamide] | 9.7
7 | Cc1ccc(C(=O)NC2CC2)cc1-n1ccnc(NC(C)(C)c2ccccc2OCCN2CCOCC2)c1=O [Example 203, N-Cyclopropyl-4-methyl-3-[3-[[1-methyl-1-[2-[2-(4-morpholinyl)ethoxy]phenyl]ethyl]amino]-2-oxo-1(2H)-pyrazinyl]-benzamide] | 8.9
8 | Cc1ccc(C(=O)NC2CC2)cc1-n1ccnc(NC2(c3cccc(F)c3OCCNC[C@@H](C)O)CC2)c1=O [Example 283, N-Cyclopropyl-3-[3-({1-[3-fluoro-2-(2-{[(2R)-2-hydroxypropyl]amino}ethoxy)phenyl]cyclopropyl}amino)-2-oxopyrazin-1(2H)-yl]-4-methylbenzamide] | 9.7
9 | Cc1ccc(C(=O)NC2CC2)cc1-n1ccnc(NC2(c3ccccc3OCCN3CCn4ccnc4C3)CC2)c1=O [Example 296, N-Cyclopropyl-3-{3-[(1-{2-[2-(5,6-dihydroimidazo[1,2-a]pyrazin-7(8H)-yl)ethoxy]phenyl}cyclopropyl)amino]-2-oxopyrazin-1(2H)-yl}-4-methylbenzamide] | 9.1
10 | Cc1c(F)cc(C(=O)NC2CC2)cc1-n1ccnc(N[C@@H](c2ccccc2)[C@@H](C)CN2CCCCC2)c1=O [Example 329, N-Cyclopropyl-3-fluoro-4-methyl-5-[3-{[(1R,2S)-2-methyl-1-phenyl-3-piperidin-1-ylpropyl]amino}-2-oxopyrazin-1(2H)-yl]benzamide] | 9.6
11 | COCCNCCOc1ccccc1C(C)(C)Nc1nccn(-c2cc(C(=O)NC3CC3)ccc2C)c1=O [Example 210, N-Cyclopropyl-3-[3-[[1-[2-[2-[(2-methoxyethyl)amino]ethoxy]phenyl]-1-methylethyl]amino]-2-oxo-1(2H)-pyrazinyl]-4-methyl-benzamide] | 9.5
12 | Cc1ccc(C(=O)NC2CC2)cc1-n1ccnc(N[C@@H](c2ccccc2)C2CCNCC2)c1=O [Example 101, N-Cyclopropyl-4-methyl-3-[2-oxo-3-[[(R)-phenyl-4-piperidinylmethyl]amino]-1(2H)-pyrazinyl]-benzamide, trifluoroacetate] | 7.4
13 | CNCCCc1ccccc1C(C)(C)Nc1nccn(-c2cc(C(=O)NC3CC3)cc(F)c2C)c1=O [Example 323, N-Cyclopropyl-3-fluoro-4-methyl-5-{3-[(1-methyl-1-{2-[3-(methylamino)propyl]phenyl}ethyl)amino]-2-oxopyrazin-1(2H)-yl}benzamide] | 9.5
14 | C[C@@H](O)CNCCOc1ccccc1C(C)(C)Nc1nccn(-c2cc(C(=O)NC3CC3)ccc2Cl)c1=O [Example 332, 4-Chloro-N-cyclopropyl-3-[3-({1-[2-(2-{[(2R)-2-hydroxypropyl]amino}ethoxy)phenyl]-1-methylethyl}amino)-2-oxopyrazin-1(2H)-yl]benzamide] | 9.7
15 | Cc1ccc(C(=O)NC2CC2)cc1-n1ccnc(NCCc2ccc(OCCN3CCCC3)cc2)c1=O [Example 133, N-Cyclopropyl-4-methyl-3-[2-oxo-3-[[2-[4-[2-(1-pyrrolidinyl)ethoxy]phenyl]ethyl]amino]-1(2H)-pyrazinyl]-benzamide] | 6.8
16 | COCCCNc1nccn(-c2cc(C(=O)NC3CC3)ccc2C)c1=O [Example 8, N-Cyclopropyl-3-[3-[(3-methoxypropyl)amino]-2-oxo-1(2H)-pyrazinyl]-4-methyl-benzamide] | 6.4

Row | SMILES | pIC50
17 | Cc1ccc(C(=O)NC2CC2)cc1-n1ccnc(N[C@@H](c2ccccc2)[C@@H](C)CN2CCC(F)CC2)c1=O [Example 174, N-Cyclopropyl-3-[3-[[(1R,2S)-3-(4-fluoro-1-piperidinyl)-2-methyl-1-phenylpropyl]amino]-2-oxo-1(2H)-pyrazinyl]-4-methyl-benzamide] | 8.9
18 | Cc1ccc(C)c(CNc2nccn(-c3cc(C(=O)NC4CC4)ccc3C)c2=O)c1 [Example 98, N-Cyclopropyl-3-[3-[[(2,5-dimethylphenyl)methyl]amino]-2-oxo-1(2H)-pyrazinyl]-4-methyl-benzamide] | 7.8
19 | Cc1ccc(C(=O)NC2CC2)cc1-n1ccnc(NCC2CNc3ccccc3C2)c1=O (centres unmarked) [Example 29, N-Cyclopropyl-4-methyl-3-[2-oxo-3-[[(1,2,3,4-tetrahydro-3-quinolinyl)methyl]amino]-1(2H)-pyrazinyl]-benzamide] | 7
20 | Cc1c(F)cc(C(=O)NC2CC2)cc1-n1ccnc(NC(C)(C)c2ccccc2OCCNCC(=O)O)c1=O [Example 312, N-(2-{2-[1-({4-[5-(Cyclopropylcarbamoyl)-3-fluoro-2-methylphenyl]-3-oxo-3,4-dihydropyrazin-2-yl}amino)-1-methylethyl]phenoxy}ethyl)glycine] | 9.8
21 | Cc1ccc(C(=O)NC2CC2)cc1-n1ccnc(N2CCCC(c3ccc(OCCN4CCCC4)cc3)C2)c1=O (centres unmarked) [Example 59, N-Cyclopropyl-4-methyl-3-[2-oxo-3-[3-[4-[2-(1-pyrrolidinyl)ethoxy]phenyl]-1-piperidinyl]-1(2H)-pyrazinyl]-benzamide] | 7.2
22 | Cc1ccc(C(=O)NC2CC2)cc1-n1ccnc(NC(C)(C)Cc2ccccc2)c1=O [Example 65, N-Cyclopropyl-3-[3-[(1,1-dimethyl-2-phenylethyl)amino]-2-oxo-1(2H)-pyrazinyl]-4-methyl-benzamide] | 7
23 | Cc1ccc(C(=O)NC2CC2)cc1-n1ccnc(NCc2ccc(CN)cc2)c1=O [Example 125, 3-[3-[[[4-(Aminomethyl)phenyl]methyl]amino]-2-oxo-1(2H)-pyrazinyl]-N-cyclopropyl-4-methyl-benzamide] | 6.2
24 | Cc1ccc(C(=O)NC2CC2)cc1-n1ccnc(N2CCOC(c3ccccc3)C2)c1=O (centres unmarked) [Example 67, N-Cyclopropyl-4-methyl-3-[2-oxo-3-(2-phenyl-4-morpholinyl)-1(2H)-pyrazinyl]-benzamide] | 6.6
25 | Cc1ccc(C(=O)NC2CC2)cc1-n1ccnc(NC2(c3ccccc3OCCN3CCc4c(ncn4C)C3)CC2)c1=O [Example 297, N-Cyclopropyl-4-methyl-3-{3-[(1-{2-[2-(1-methyl-1,4,6,7-tetrahydro-5H-imidazo[4,5-c]pyridin-5-yl)ethoxy]phenyl}cyclopropyl)amino]-2-oxopyrazin-1(2H)-yl}benzamide] | 9.4
26 | CNCCOc1ccccc1C(C)(C)Nc1nccn(-c2cc(C(=O)NC(C)C)ccc2C)c1=O [Example 223, 4-Methyl-N-(1-methylethyl)-3-[3-[[1-methyl-1-[2-[2-(methylamino)ethoxy]phenyl]ethyl]amino]-2-oxo-1(2H)-pyrazinyl]-benzamide] | 8.1
27 | Cc1ccc(C(=O)NC2CC2)cc1-n1cc(C(N)=O)nc(NCc2ccccc2)c1=O [Example 106, 4-[5-[(Cyclopropylamino)carbonyl]-2-methylphenyl]-4,5-dihydro-5-oxo-6-[(phenylmethyl)amino]-2-pyrazinecarboxamide] | 6.2
28 | Cc1cccc(CCNc2nccn(-c3cc(C(=O)NC4CC4)ccc3C)c2=O)c1 [Example 73, N-Cyclopropyl-4-methyl-3-[3-[[2-(3-methylphenyl)ethyl]amino]-2-oxo-1(2H)-pyrazinyl]-benzamide] | 7.1
29 | CONC(=O)c1ccc(C)c(-n2ccnc(N[C@@H](c3ccccc3)[C@@H](C)CN3CCCC3)c2=O)c1 [Example 159, N-Methoxy-4-methyl-3-[3-[[(1R,2S)-2-methyl-1-phenyl-3-(1-pyrrolidinyl)propyl]amino]-2-oxo-1(2H)-pyrazinyl]-benzamide] | 9.6
30 | Cc1ccc(CNc2nccn(-c3cc(C(=O)NC4CC4)ccc3C)c2=O)cc1 [Example 42, N-Cyclopropyl-4-methyl-3-[3-[[(4-methylphenyl)methyl]amino]-2-oxo-1(2H)-pyrazinyl]-benzamide] | 6.4
31 | Cc1ccc(C(=O)NC2CC2)cc1-n1ccnc(N(CCN(C)C)Cc2ccccc2)c1=O [Example 121, N-Cyclopropyl-3-[3-[[2-(dimethylamino)ethyl](phenylmethyl)amino]-2-oxo-1(2H)-pyrazinyl]-4-methyl-benzamide] | 6
32 | CC(C)(Nc1nccn(-c2cc(C(=O)NC3CC3)ccc2Cl)c1=O)c1ccccc1OCCN [Example 334, 3-[3-({1-[2-(2-Aminoethoxy)phenyl]-1-methylethyl}amino)-2-oxopyrazin-1(2H)-yl]-4-chloro-N-cyclopropylbenzamide] | 9.3
